Laboratory results as given in US10980787B2, “Drug for treating or preventing disorder caused by TGF-B signals, and application thereof” (THE DOSHISHA, priority 2015, dated 2021).

How the values were obtained:
[1] = test system: immobilized human corneal endothelial cells (iFECD); test: Mitochondrial membrane potential decreased cells, JC-1 flow cytometry; format: cell-based; conditions: TGF-β2 10 ng/ml 30 hours, SB203580 10 μM, PH-797804 1 μM, VX-702 3 μM, compared to the TGF-β2 group or SB431542 10 μM group
Procedure: (§1) The medium was removed from a culture dish in which immobilized human corneal endothelial cells were being cultured, and the cells were supplemented with 1×PBS (−) that was preheated to 37° C., and were washed. This was repeated twice. The cells were supplemented again with 1×PBS (−) and incubated for 5 minutes at 37° C. (5% C02). After removing the PBS (−), the cells were supplemented with 0.05% Trypsin-EDTA (Nacalai Tesque, 35554-64) and incubated for 5 minutes at 37° C. (5% CO2). The cells were then suspended in a medium, and collected by centrifugation at 1500 rpm for 3 minutes. DMEM (Nacalai Tesque, 08456-94)+10% FBS (Biowest, S1820-500)+1% P/S (Nacalai Tesque, 26252-94) was used as the medium.
(§2) Immobilized human corneal endothelial cells (lot: iFECD3-5) were seeded on a 12-well plate at a ratio of 8×10^4 cells per well and cultured for 48 hours at 37° C. (5% CO2). DMEM+10% FBS+1% P/S was used as the medium.
(§3) After 48 hours, the medium was removed. Each inhibitor was added to culture the cells for 24 hours (pretreatment). DMSO (Dimethyl Sulfoxide Sterile-filtered) (Nacalai Tesque, 13408-64) was added to the control group and the TGF-β2 group. DMEM+2% FBS+1% P/S was used as the medium. […]
The samples prepared above were analyzed using BD Accuri C6 Flow Cytometer (BD).

[2] = test system: Human corneal endothelial cells; test: Cell count 24 hours after thawing cryopreserved cells, CellTiter-Glo; format: cell-based; conditions: SB203580 10 μM, 24 hours after seeding thawed cells
Procedure: After thawing the cryopreserved cells by adding only DMSO, 10000 cells were seeded in a 96-well plate that was coated with laminin E8. SB203580 (Cayman, catalog number: 13067) was added so that the final concentration was 10 μM upon seeding. DMSO was added to the group to which SB203580 was not added. After 24 hours from seeding, CellTiter-Glo Luminescent Cell Viability Assay (Promega catalog number: G7570) was performed to measure luminescence.

[3] = test system: Human corneal endothelial cells; test: Cryopreservation of corneal endothelial cells, trypan blue dye exclusion test; format: cell-based; conditions: SB203580 10 μM in KM BANKER, 3 days at −80° C.
Procedure: Human corneal endothelial cells cultured in an MSC-CM (MSC cultured medium) were used in the test. The medium was removed from a culture dish in which human corneal endothelial cells were being cultured, and the cells were supplemented with PBS (−) that was preheated to 37° C., and were washed. This was repeated twice. After removing the PBS (−), the cells were supplemented with TrypLE Select (×10) (GIBCO, A12177-01) and incubated for 10 minutes at 37° C. (5% CO2). SB203580 was added to KM BANKER, so that the final concentration was 10 μM. The control group was cryopreserved by supplementing a reagent solvent, dimethyl sulfoxide (DMSO) (Dimethyl Sulfoxide Sterile-filtered; Nacalai Tesque, 13408-64). After 3 days of storage at −80° C., the tube was thawed by being immersed in a 37° C. water bath. After thawing, the sample was washed in a medium. Live and dead cell counts were measured by trypan blue dye exclusion test.

[4] = cited from earlier work
[5] = test system: immobilized human corneal endothelial cells (iFECD); test: Mitochondrial membrane potential, JC-1 stain, confocal microscope; format: cell-based; conditions: CCCP 50 μmol/L, 9 hours, uncoupling agent
Procedure: as §1, with “CO2).” for “C02).”
Immobilized human corneal endothelial cells (lot: iFECD3-5) were seeded on a 48-well plate at a ratio of 4×10^4 cells per well and cultured for 48 hours at 37° C. (5% CO2). DMEM+10% FBS+1% P/S was used as the medium.
as §3, with “The CCCP group” for “DMEM+2% FBS+1% P/S”, “supplemented with CCCP (abcam, ab141229), so that” for “used as”, “final concentration was 50 μmol/L, and cultured for 9 hours.” for “medium.”
Mitochondrial membrane potential was analyzed by the following procedure with a JC-1 stain. […]

[6] = test system: immobilized human corneal endothelial cells (iFECD); test: Cell damage by TGF-β2 stimulation, phase differential microscope; format: cell-based; conditions: 24 h pretreatment, TGF-β2 10 ng/ml 27 hours, SB203580 10 μM, PH-797804 1 μM, VX-702 3 μM, SB431542 10 μM
Procedure: as §1, with “CO2).” for “C02).”, “P/S (penicillin-streptomycin mixture)” for “P/S”
as §2
After 48 hours, the medium was removed. Each inhibitor was added to culture the cells for 24 hours. DMSO (Dimethyl Sulfoxide Sterile-filtered) (Nacalai Tesque, 13408-64) was added to the control group and the TGF-52 group. DMEM+2% FBS+1% P/S was used as the medium.
After 24 hours, the medium was removed. A medium containing 10 ng/ml of Recombinant Human TGF-β2 (R&D systems, RND302-B2-002) and each inhibitor was added to culture the cells for 27 hours. […]

smad2 and smad3 = test: Western blot of phospho-smad2 and smad3 after TGF-β2 stimulation; format: cell-based, human; conditions: iFECD, TGF-β2 10 ng/ml 24 hours; SB431542 10 μM, SB203580 10 μM, PH-797804 1 μM, VX-702 3 μM
Description: The same procedure as Example 4 was used. However, rabbit anti-Phospho-Smad2 antibody: 1000-fold dilution, rabbit anti-Phospho-Smad3 antibody: 1000-fold dilution, and mouse anti-GAPDH antibody: 3000-fold dilution were used as the primary antibodies.

Compound: C[S+]([O-])c1ccc(-c2nc(-c3ccncc3)c(-c3ccc(F)cc3)[nH]2)cc1 (stereo not drawn) [SB203580, 4-(4-fluorophenyl)-2-(4-methylsulfinylphenyl)-5-(4-pyridyl)-1H-imidazole]
- percentage of mitochondrial membrane potential decreased cells [1]: comparable to or lower than the SB431542 added group
- cell count compared to the DMSO-added group [2]: about 1.3 fold
- cell viability immediately after thawing compared to DMSO [3]: slightly higher
- solubility into methanol ([4]; methanol): soluble
- solubility into water ([4]; water): difficult to dissolve

Compound: N#CC(C#N)=NNc1cccc(Cl)c1 [CCCP]
- mitochondrial membrane potential (JC-1 red fluorescence) [5]: not observed

Compound: NC(=O)c1ccc(-c2nc(-c3ccc4c(c3)OCO4)c(-c3ccccn3)[nH]2)cc1 [SB431542]
- damage to corneal endothelial cells due to TGF-β2 stimulation [6]: suppressed
- smad2 and smad3 (downstream of TGF-β signaling pathway) in western blot (smad2 and smad3): not found

Compound: CNC(=O)c1ccc(C)c(-n2c(C)cc(OCc3ccc(F)cc3F)c(Br)c2=O)c1 [PH-797804, 3-[3-bromo-4-[(2,4-difluorophenyl)methoxy]-6-methyl-2-oxopyridin-1-yl]-N,4-dimethylbenzamide]
- percentage of mitochondrial membrane potential decreased cells [1]: comparable to or lower than the SB431542 added group
